This note sets out measurements from US7342089B2, “Cyclic peptides for treatment for cachexia” (Palatin Technologies, Inc., priority 2002, dated 2008).

Positions of bridges follow the written chain, without caps; N, C: chain ends. Non-standard residues stand in square brackets, D forms with d. Residues, ends and D or L forms follow the SMILES beside them. 2Nal = N[C@@H](Cc1ccc2ccccc2c1)C(=O)O; d2Nal = N[C@H](Cc1ccc2ccccc2c1)C(=O)O; Nle = CCCC[C@H](N)C(=O)O

Assay [1] deals with rats. The experiment in a line: ICV feeding studies. It is filed as in vivo, rat. Particulars: lowest value of multiple tests, parentheses = decrease. The protocol:
Change in food intake and body weight is evaluated for selected peptides. Rats with indwelling intracerebroventricular cannulas (ICV rats) are obtained from Hilltop Lab Animals, Inc. (Scottdale, Pa.). Animals are individually housed in conventional plexiglass hanging cages and maintained on a controlled 12 hour on/off light cycle. Water and powdered (LabDiet, 5P00 Prolab RMH 3000) or pelleted (Harlan Teklad 2018 18% Protein Rodent Diet) food is provided ad libitum. For 1 week before treatment, 24-hour food intake and body weight change is recorded to assess a baseline for the group during vehicle treatment. The rats are dosed ICV with vehicle or selected cyclic peptides (0.3-3 nmol). The changes in body weight and food intake for the 24 hour period after dosing are determined. The changes in body weight and food intake for the 48 hour and 72 hour periods after dosing are also measured to determine reversal of changes in body weight and food intake effects back to baseline levels.
A series of ICV feeding studies were conducted on rats. All animals were dosed on the first day with saline ICV, and given a pre-weighed food bowl with food weight recorded at 2 and 21 hours post-ICV injection. On day 2, animals were randomized based on the 21 hour food consumption, with animals eliminated due to low food consumption or food spills. […] Food weights were again recorded at 2, 4, 21 and 24 hours post-icv injection. In most instances, multiple different tests were conducted which each group containing between 8 and 12 members; the lowest value is shown below. Values are shown as percent increase (decrease) in aggregate food intake. “ND” means no test was conducted at that dose level.

The target in assay [2] is T1, hMC3-R (HEK-293 cells) (Homo sapiens, UniProt P41968).
T1 construct: expressed in transfected cells; host or cells: HEK-293
T1 sequence (P41968 whole entry): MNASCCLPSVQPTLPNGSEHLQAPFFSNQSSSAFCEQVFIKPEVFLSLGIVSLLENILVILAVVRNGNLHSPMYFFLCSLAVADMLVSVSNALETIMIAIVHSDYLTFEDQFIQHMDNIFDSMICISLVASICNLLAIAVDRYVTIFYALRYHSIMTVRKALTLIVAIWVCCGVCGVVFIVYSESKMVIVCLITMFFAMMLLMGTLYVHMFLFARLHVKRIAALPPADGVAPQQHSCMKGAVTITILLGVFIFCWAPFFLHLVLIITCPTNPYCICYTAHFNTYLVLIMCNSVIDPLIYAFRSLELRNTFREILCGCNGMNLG
The experiment in a line: cAMP assay for agonist/antagonist status and functional antagonism, MC3-R. It is filed as cell-based. The note with it: for Kb: read-out: pA2 value as to MC3-R (converted).
Method: Assay for neutral antagonist.
Experimental details are similar to the analysis for agonistic activity and are described above. Briefly, cells are pre-incubated for 30 minutes with the test peptides at concentrations between 0.5 nM and 5000 nM. […] For Schild's analysis, the interactions are studied using at least 3 concentrations of the peptides, separated by a log unit, over a full range of the agonist (0.005-5000 nM). cAMP levels is measured in the cell lysates after appropriate dilution. Nonlinear regression analysis with the Prism Graph-Pad software is used for Schild's analysis and to obtain EC50 values. pA2 values are derived from the Schild's plot.

For assay [3], the target named is T2, hMC3-R (Homo sapiens, UniProt P41968).
T2 construct: expressed in transfected cells; host or cells: HEK-293
T2 sequence (P41968 whole entry): as above
In words: Competitive inhibition binding assay using [I125]-NDP-α-MSH, hMC3-R. The note with it: HEK-293 membranes, read-out: Ki MC3-R.

Assay [4] deals with T3, MC1-R (B-16 mouse melanoma cells) (Mus musculus, UniProt Q01727). In words: cAMP assay for agonist/antagonist status, MC1-R. It is filed as cell-based. The note with it: for EC50: read-out: EC50 as to MC1-R. Here is the method:
Cells are incubated with the test peptides in the presence or absence of α-MSH for 1 hour at 37° C. cAMP levels in the cell lysates are measured using the EIA kit (Amersham). Data analysis and EC50 values are determined using nonlinear regression analysis with Prism Graph-Pad software.
The agonist/antagonist status with respect to MC1-R, MC4-R and MC5-R of certain peptides of the invention is determined. Antagonistic activity is determined by measuring the inhibition of α-MSH-induced or NDP-α-MSH-induced cAMP levels following exposure to the peptides as in the preceding descriptions.
(In general: Changes in cAMP serve as a functional read-out for many G protein-coupled receptors.)

Assay [5] concerns the target T4, hMC4-R (Homo sapiens, UniProt P32245).
T4 construct: expressed in transfected cells; host or cells: HEK-293
The experiment in a line: Competitive inhibition binding assay using [I125]-NDP-α-MSH, hMC4-R. Particulars: HEK-293 membranes, read-out: Ki MC4-R.

Assay [6] concerns the target T5, hMC5-R (Homo sapiens, UniProt P33032).
T5 construct: expressed in transfected cells; host or cells: HEK-293
In words: Competitive inhibition binding assay using [I125]-NDP-α-MSH, hMC5-R. The note with it: HEK-293 membranes, read-out: Ki MC5-R.

Assay [7] deals with T6, hMC4-R (HEK-293 cells) (Homo sapiens, UniProt P32245).
T6 construct: expressed in transfected cells; host or cells: HEK-293
T6 sequence (P32245 whole entry): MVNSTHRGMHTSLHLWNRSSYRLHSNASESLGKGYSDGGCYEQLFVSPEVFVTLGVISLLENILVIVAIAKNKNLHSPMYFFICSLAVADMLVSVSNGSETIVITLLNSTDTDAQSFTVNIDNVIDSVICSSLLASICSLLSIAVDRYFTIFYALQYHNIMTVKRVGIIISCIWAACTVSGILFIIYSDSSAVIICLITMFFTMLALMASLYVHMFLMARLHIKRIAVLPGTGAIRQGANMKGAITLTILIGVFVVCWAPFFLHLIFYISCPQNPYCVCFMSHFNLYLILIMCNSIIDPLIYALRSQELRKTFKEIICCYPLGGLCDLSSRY
In words: cAMP assay for agonist/antagonist status and functional antagonism, MC4-R. In kind it is cell-based. Particulars: for agonist/antagonist status as to MC4-R: cAMP assay; for Kb: functional antagonism, Schild's analysis vs NDP-α-MSH, read-out: pA2 value as to MC4-R (converted).
Method: Confluent HEK-293 cells over-expressing MC4-R are detached by enzyme free cell suspension buffer. […] The cells are plated in a 96 well plates at a density of 0.5×10^5 cells per well and pre-incubated for 30 minutes. The cells are then challenged with the test peptides dissolved in dimethylsulfoxide (DMSO) at a concentration range of 0.05-5000 nM in a total assay volume of 200 μL for 1 hour at 37° C. The concentration of DMSO is always held at 1% in the assay mixture. […] At the end of the incubation period the cells are disrupted by the addition of 50 μL lysis buffer from the cAMP EIA kit (Amersham). Complete rupture of the cells is ensured by pipetting the cells up and down multiple times. cAMP levels in the cell lysates are measured after appropriate dilution using the EIA kit (Amersham) method. Data analysis and EC50 values are determined by using nonlinear regression analysis with the Prism Graph-Pad software. […] Peptides with a response ratio of less than 0.1 are evaluated for antagonistic activity.
Briefly, cells are pre-incubated for 30 minutes with the test peptides at concentrations between 0.5 nM and 5000 nM. […] For Schild's analysis, the interactions are studied using at least 3 concentrations of the peptides, separated by a log unit, over a full range of the agonist (0.005-5000 nM). cAMP levels is measured in the cell lysates after appropriate dilution. Nonlinear regression analysis with the Prism Graph-Pad software is used for Schild's analysis and to obtain EC50 values. pA2 values are derived from the Schild's plot.

Assay [8] concerns the target T3, MC1-R (B-16 mouse melanoma cells). The experiment in a line: Competitive inhibition binding assay using [I125]-NDP-α-MSH, MC1-R. Particulars: B-16 mouse melanoma cell membranes. Here is the method: Each assay is conducted in triplicate.

The term EC50 denotes the concentration at which the effect is half-maximal. A word on the Ki: it is the equilibrium dissociation constant of an inhibitor or competing ligand from its target.

T5 sequence (P33032 whole entry): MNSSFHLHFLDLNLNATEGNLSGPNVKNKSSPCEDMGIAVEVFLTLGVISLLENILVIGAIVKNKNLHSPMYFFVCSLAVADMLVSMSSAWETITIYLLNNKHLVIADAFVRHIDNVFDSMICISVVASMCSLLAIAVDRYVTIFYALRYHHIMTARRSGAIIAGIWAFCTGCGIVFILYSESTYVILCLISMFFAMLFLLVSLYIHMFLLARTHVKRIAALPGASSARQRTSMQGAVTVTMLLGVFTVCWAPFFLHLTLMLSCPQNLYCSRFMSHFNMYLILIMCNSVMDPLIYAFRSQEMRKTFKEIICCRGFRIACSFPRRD
T4 sequence (P32245 whole entry): as the sequence (P32245 whole entry) above
T3 sequence (Q01727 whole entry): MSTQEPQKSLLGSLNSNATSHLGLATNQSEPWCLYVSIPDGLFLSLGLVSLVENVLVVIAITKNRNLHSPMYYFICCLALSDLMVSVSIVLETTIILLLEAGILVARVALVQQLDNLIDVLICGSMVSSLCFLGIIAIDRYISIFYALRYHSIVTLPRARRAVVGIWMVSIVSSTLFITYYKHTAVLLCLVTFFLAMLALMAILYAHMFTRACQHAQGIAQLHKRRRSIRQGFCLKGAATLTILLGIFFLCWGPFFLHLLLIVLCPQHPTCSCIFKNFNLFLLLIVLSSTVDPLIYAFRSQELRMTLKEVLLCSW

`CC(=O)N[C@H]1CC(=O)NCCCC[C@@H](C(=O)O)NC(=O)[C@H](Cc2c[nH]c3ccccc23)NC(=O)[C@H](CCCNC(=N)N)NC(=O)[C@@H](Cc2ccc3ccccc3c2)NC(=O)[C@H](Cc2c[nH]cn2)NC1=O` [Example 14, Ac-cyclo(-Asp-His-D-Nal 2-Arg-Trp-Lys)-OH]: in assay [1] (1 nmol), the “Percent Increase (Decrease) In Aggregate Food Intake After ICV Administration of Peptide Compared to Vehicle (Saline)” value turned out to be 16%. Also, the “agonist/antagonist status as to MC3-R” value in assay [2] (cAMP assay) is “antagonist”. In addition, the EC50 is 1 nM in assay [2] (cAMP assay, read-out: EC50 as to MC3-R) and 4420 nM in assay [4]. The Ki in assay [3] was 55 nM; in assay [5], 2 nM; in assay [6], 191 nM; in assay [8] it was 181 nM. Also, the “agonist/antagonist status as to MC1-R” value in assay [4] is recorded as “agonist”. For the same compound, the “agonist/antagonist status as to MC4-R” value in assay [7] was “antagonist”. Besides, in assay [7], the Kb was 186 nM.

Regarding `CC(=O)N[C@H]1CC(=O)NCCCC[C@@H](C(=O)O)NC(=O)[C@H](Cc2ccc3ccccc3c2)NC(=O)[C@H](CCCNC(=N)N)NC(=O)[C@@H](Cc2ccc3ccccc3c2)NC(=O)[C@H](Cc2c[nH]cn2)NC1=O` [Example 15, Ac-cyclo(-Asp-His-D-Nal 2-Arg-Nal 2-Lys)-OH] (Ac-DH[d2Nal]R[2Nal]K-OH; lactam 1-6), in assay [1] (1 nmol), the “Percent Increase (Decrease) In Aggregate Food Intake After ICV Administration of Peptide Compared to Vehicle (Saline)” value was 32%. For the same compound, the “agonist/antagonist status as to MC3-R” value in assay [2] (cAMP assay) is listed as “antagonist”. Further, the Ki in assay [3] was determined as 6 nM; in assay [5] it was 2 nM; in assay [6], 89 nM; in assay [8], 143 nM. The “agonist/antagonist status as to MC1-R” value in assay [4] was “partial agonist”. The EC50 in assay [4] amounted to 2150 nM. For the same compound, the “agonist/antagonist status as to MC4-R” value in assay [7] is given as “antagonist”. The Kb in assay [7] is 10 nM.

Take `CCCC[C@H](NC(C)=O)C(=O)N[C@H]1CC(=O)NCCCC[C@@H](C(=O)O)NC(=O)[C@H](Cc2c[nH]c3ccccc23)NC(=O)[C@H](CCCNC(=N)N)NC(=O)[C@@H](Cc2ccc3ccccc3c2)NC(=O)[C@H](Cc2c[nH]cn2)NC1=O` [Example 11, Ac-Nle-cyclo(-Asp-His-D-Nal 2-Arg-Trp-Lys)-OH]: the “Percent Increase (Decrease) In Aggregate Food Intake After ICV Administration of Peptide Compared to Vehicle (Saline)” value in assay [1] (1 nmol) is reported as 24%. In assay [4], the “agonist/antagonist status as to MC1-R” value is reported as “partial agonist” and the EC50 worked out at 57 nM. Also, the inhibition constant Ki in assay [8] is 3 nM.

With `CCNC(=O)[C@@H]1CCCCNC(=O)C[C@H](NC(C)=O)C(=O)N[C@@H](Cc2c[nH]c3ccccc23)C(=O)N[C@H](Cc2ccc3ccccc3c2)C(=O)N[C@@H](CCCNC(=N)N)C(=O)N[C@@H](Cc2ccc3ccccc3c2)C(=O)N1` [Example 17, Ac-cyclo(-Asp-Trp-D-Nal 2-Arg-Nal 2-Lys)-NH—CH2—CH3] (Ac-DW[d2Nal]R[2Nal]K-NHEt; lactam 1-6), the “Percent Increase (Decrease) In Aggregate Food Intake After ICV Administration of Peptide Compared to Vehicle (Saline)” value was found to be 32% in assay [1] (0.3 nmol) and 20% in assay [1] (1 nmol). In addition, in assay [2] (cAMP assay), the “agonist/antagonist status as to MC3-R” value is recorded as “antagonist”. For the same compound, the Kb in assay [2] is 9.12 nM; in assay [7], 1.74 nM. Besides, the inhibitory constant (Ki) in assay [3] was determined as 1 nM; in assay [5] it was 0.03 nM; in assay [6] it was 3 nM; in assay [8], 194 nM. The “agonist/antagonist status as to MC1-R” value in assay [4] was “partial agonist”. Also, the EC50 in assay [4] is more than 1000 nM. Further, in assay [7], the “agonist/antagonist status as to MC4-R” value is “antagonist”.

As for `CC(=O)N[C@H]1CC(=O)NCCCC[C@@H](C(=O)O)NC(=O)[C@H](Cc2ccc3ccccc3c2)NC(=O)[C@H](CCCNC(=N)N)NC(=O)[C@@H](Cc2ccc3ccccc3c2)NC(=O)[C@H](Cc2c[nH]c3ccccc23)NC1=O` [Example 16, Ac-cyclo(-Asp-Trp-D-Nal 2-Arg-Nal 2-Lys)-OH] (Ac-DW[d2Nal]R[2Nal]K-OH; lactam 1-6), the results for the “Percent Increase (Decrease) In Aggregate Food Intake After ICV Administration of Peptide Compared to Vehicle (Saline)” value in assay [1] (0.3 nmol) and in assay [1] (1 nmol) were 0% and 4%, respectively. Moreover, the “agonist/antagonist status as to MC3-R” value in assay [2] (cAMP assay) is given as “antagonist”. Also, the inhibition constant Ki in assay [3] was 10 nM; in assay [5], 0.1 nM; in assay [6], 17 nM; in assay [8] it was 1100 nM. In assay [4], the “agonist/antagonist status as to MC1-R” value was “partial agonist”. For the same compound, in assay [4], the concentration for a half-maximal effect (EC50) is more than 1000 nM. Besides, the “agonist/antagonist status as to MC4-R” value in assay [7] was “antagonist”. The Kb in assay [7] was 3.55 nM.

Take `CNC(=O)[C@@H]1CCCCNC(=O)C[C@H](NC(C)=O)C(=O)N[C@@H](Cc2c[nH]c3ccccc23)C(=O)N[C@H](Cc2ccc3ccccc3c2)C(=O)N[C@@H](CCCNC(=N)N)C(=O)N[C@@H](Cc2ccc3ccccc3c2)C(=O)N1` [Example 19, Ac-cyclo(-Asp-Trp-D-Nal 2-Arg-Nal 2-Lys)-NH—CH3] (Ac-DW[d2Nal]R[2Nal]K-NHMe; lactam 1-6): the “Percent Increase (Decrease) In Aggregate Food Intake After ICV Administration of Peptide Compared to Vehicle (Saline)” value turned out to be 28% in assay [1] (0.3 nmol) and 32% in assay [1] (1 nmol). Moreover, in assay [2] (cAMP assay), the “agonist/antagonist status as to MC3-R” value is reported as “antagonist”. Further, the Kb in assay [2] was 8.51 nM; in assay [7], 1.26 nM. Also, the Ki in assay [3] is 3 nM; in assay [5], 0.06 nM; in assay [6] it was 6 nM; in assay [8], 643 nM. The “agonist/antagonist status at MC1-R” value in assay [4] (peptide at 1 μM concentration) is “inactive”. Moreover, the “agonist/antagonist status as to MC4-R” value in assay [7] is “antagonist”.

Turning to `CCCC[C@H](NC(C)=O)C(=O)N[C@H]1CC(=O)NCCCC[C@@H](C(=O)O)NC(=O)[C@H](Cc2ccc3ccccc3c2)NC(=O)[C@H](CCCNC(=N)N)NC(=O)[C@@H](Cc2ccc3ccccc3c2)NC(=O)[C@H](Cc2c[nH]c3ccccc23)NC1=O` [Example 13, Ac-Nle-cyclo(-Asp-Trp-D-Nal 2-Arg-Nal 2-Lys)-OH] (Ac-[Nle]DW[d2Nal]R[2Nal]K-OH; lactam 2-7), in assay [4], the “agonist/antagonist status as to MC1-R” value was “partial agonist”. This compound also displayed an inhibitory constant (Ki) in assay [8] of 119 nM.

In the case of `CC(=O)N[C@H]1CC(=O)NCCCC[C@@H](C(=O)N(C)C)NC(=O)[C@H](Cc2ccc3ccccc3c2)NC(=O)[C@H](CCCNC(=N)N)NC(=O)[C@@H](Cc2ccc3ccccc3c2)NC(=O)[C@H](Cc2c[nH]c3ccccc23)NC1=O` [Example 18, Ac-cyclo(-Asp-Trp-D-Nal 2-Arg-Nal 2-Lys)-N(CH3)2] (Ac-DW[d2Nal]R[2Nal]K-NMe2; lactam 1-6), the “Percent Increase (Decrease) In Aggregate Food Intake After ICV Administration of Peptide Compared to Vehicle (Saline)” value in assay [1] (0.3 nmol) and in assay [1] (1 nmol) was 24% in each case. For the same compound, the “agonist/antagonist status as to MC3-R” value in assay [2] (cAMP assay) is “antagonist”. The Kb in assay [2] was 51.3 nM; in assay [7], 2.04 nM. The Ki in assay [3] came to 1 nM; in assay [5], 0.03 nM; in assay [6], 4 nM; in assay [8] it was 107 nM. The “agonist/antagonist status as to MC1-R” value in assay [4] was “inactive”. Also, the “agonist/antagonist status as to MC4-R” value in assay [7] is “antagonist”.
